Results reported in patent US8609649B2, “Compositions and methods for the diagnosis, treatment, and prevention of amyotrophic lateral sclerosis and related neurological diseases” (Brandeis University, priority 2007, dated 2013).
Each block holds one compound with its values, some of them ahead of it.

Legend:
[1] = system: humans with systolic hypertension and moderately severe diastolic heart failure; details: 16 weeks, 23 humans; cited from earlier work
hypertensive subjects = details: 93 hypertensive subjects age greater than 50 years, compared with placebo; cited from earlier work
[2] = system: diabetic hyperlipidemic mice; details: cited from earlier work
diabetic rats = details: cited from earlier work
[3] = cited from earlier work
SOD-1 Cys111 = SOD-1 Cys111 (Homo sapiens, UniProt P00441); assay: Intersubunit crosslinking of SOD-1; assay type: biochemical; details: FIG. 16
AGE formation = details: in vitro; cited from earlier work
[4] = humans; cited from earlier work
mice = details: cited from earlier work
cultured motor neurons [5] = assay: Viability of motor neurons microinjected with plasmid encoding SOD-1 variants; assay type: cell-based, mouse; details: motor neurons expressing the SOD-1 variant, 10 days of observation, linear curve fit
From the text: (§1) Dissociation of spinal cord-dorsal root ganglia from embryonic day 13 CD 1 mice (Charles River Laboratories, Wilmington, Mass.), plating on poly-D-lysine-coated coverslips, culture media, and identification of motor neurons were as previously described. Roy, J., Minotti, S., Dong, L., Figlewicz, D. A., and Durham, H. D. (1998) J. Neurosci. 18, 9673-9684. Cultures were used 3-6 weeks after plating.
(§2) Subcloning of SOD-1G93A and SOD-1 wt cDNAs into the BamHI/HindIII sites of pcDNA3 (Invitrogen) was performed previously using cDNAs provided by Dr. Denise Figlewicz (University of Michigan, Ann Arbor, Mich.). Wang, J., Xu, G., and Borchelt, D. R. (2002) Neurobiol. Dis. 9, 139-148. Trp 4 Phe (W32F) mutations were created by site-specific mutagenesis of SOD-1 G93A and SOD-1 wt (TOP Gene Technologies, Quebec, Canada), producing SOD-1 W32F/G93A and SOD-1 W32F mutants, respectively. Intranuclear microinjection of plasmids was used to express SOD-1 constructs in motor neurons and to assess their effects on the survival and formation of inclusions as previously described Durham, H. D., Roy, J., Dong, L., and Figlewicz, D. A. (1997) J. Neuropathol. Exp. Neurol. 56, 523-530.
For viability experiments, motor neurons containing the co-injected fluorescent marker were counted daily under epifluorescence microscopy beginning 24 h post-microinjection. The number of motor neurons was expressed as a percentage of those present at 24 h to exclude those dying from injury during microinjection. The morphology of each cell was also evaluated by phase microscopy. All experiments involved a minimum of six cultures per condition with 20-80 motor neurons (average of 40) analyzed per culture. All experimental groups were analyzed simultaneously using cultures from the same batch, but each set of conditions was assessed for reproducibility in more than one culture batch. For viability experiments, injectates were coded by an independent researcher, and cell counts for viability were carried out blind to the identity of the experimental condition. Rates of cell death were calculated by a linear curve fit of the data (see FIG. 11) and are expressed as the percentage of death/day. The lowest observed linear regression r2 value was 0.94, and the average value was 0.96.
For the survival assays, statistical significance was determined using analysis of variance between groups (SigmaStat, Systat Software, Inc., Point Richmond, Calif.). Significance was established at p less than or equal to 0.05. Data for percentage of motor neurons with inclusions were tested for normal distribution and then compared using a one-tailed, two-sample t test for equal means under the assumption of unequal variance. A null hypothesis of equal means was rejected when p is less than or equal to 0.05.

proteasome = assay: Proteasome activity in SOD-1-expressing stably transfected NIH/3T3 cell lines; assay type: cell-based; details: NIH/3T3 cell lines expressing the SOD-1 variant
From the text: Therefore, one aspect of the invention relates to monitoring proteasome activity to screen for potential ALS therapeutic compounds. FIG. 2 illustrates the results of using SOD-1 expressing cells (eG93A SOD-1 expressing clones; wild-type SOD-1 expressing clones; and […] G93A SOD-1 expressing clones) for said purpose. In certain embodiments, the assay involves administration of different concentrations of a given compound to G93A- and wild-type SOD-1 cell lines, and assaying proteasome activity. Successful compounds, in analogy to […]/G93A double mutant (FIG. 2), will relieve G93A SOD-1 associated proteasome inhibition. […] With successful hits, SOD-1 protein can be immunopurified from cell cultures to determine if there is any direct chemical bonding to SOD-1. pcDNA-3 vector with wild-type SOD-1, G93A SOD-1, […] SOD-1, […] G93A SOD-1 cDNA sequence were prepared by standard site-directed mutagenesis techniques. NIH/3T3 cells were maintained in Dulbecco's modified Eagle's medium (ATCC, Mannassas, Va.) supplemented with 10% newborn calf serum (Invitrogen, Carlsbad, Calif.). Cells were transfected with the plasmids using Lipofectamine 2000 (Invitrogen, Carlsbad, Calif.). A mock transfection was performed and cells were transfected under the same conditions but using either empty pcDNA-3 expression vector or no vector (to test the efficiency of selection). […]

cultured motor neurons [6] = assay: SOD-1-positive cytoplasmic inclusions in microinjected motor neurons; assay type: cell-based, mouse
From the text: as §1
as §2, with “523-530. […]” for “523-530.”
For the survival assays, statistical significance was determined using analysis of variance between groups (SigmaStat, Systat Software, Inc., Point Richmond, Calif.). […]

[7] = 12 weeks therapy, diabetic hypertensive rats

Chain of SOD-1 Cys111 (P00441 2-154 limits assumed): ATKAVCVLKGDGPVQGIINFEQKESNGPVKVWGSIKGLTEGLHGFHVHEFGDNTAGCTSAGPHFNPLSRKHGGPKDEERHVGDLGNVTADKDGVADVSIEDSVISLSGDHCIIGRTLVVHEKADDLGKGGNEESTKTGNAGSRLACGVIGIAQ

Compound: Cc1sc[n+](CC(=O)c2ccccc2)c1C.[Cl-] [ALT-711, alagebrium chloride]
left ventricular mass, left ventricular filling, patient ratings of quality of life [1]: decreased left ventricular mass, improved left ventricular filling, and improved patient ratings of quality of life | pulse pressure and arterial stiffness (hypertensive subjects): significant reduction | atherosclerosis, cholesterol and systolic blood pressure [2]: attenuated atherosclerosis and decreased cholesterol and systolic blood pressure | levels of AGEs, RAGE expression, diabetic nephropathy, myocardial stiffness (diabetic rats; diabetic rats): decrease

Compound: CC(=O)NCCNC(=N)NN.Cl [ALT-946, N-(2-acetamidoethyl)hydrazinecarboximidamide hydrochloride]
decrease of albuminuria compared with aminoguanidine therapy (diabetic rats; [7]): 250% | renal AGEs by histologic analysis (diabetic rats; [7]): reduce renal AGEs | albuminuria (diabetic rats; rat model, used at the onset of diabetes and initiated after 16 weeks of diabetes): reduced albuminuria

Compound: N=C(N)NN [Aminoguanidine]
nephropathy, retinopathy, and vessel elasticity (diabetic rats; diabetic rats): improve | incidence of glomerulonephritis ([3]; higher dose): increased incidence | proteinuria ([3]; lower dose, P<0.001): equally effective | retinopathy progression ([3]; lower dose, P=0.03): preventing retinopathy progression | serious side effects ([3]; lower dose): free of serious side effects

intersubunit crosslinking of SOD-1 Cys111 (SOD-1 Cys111): intersubunit crosslinking
Compound: O=C1C=CC(=O)N1CCSSCCN1C(=O)C=CC1=O [DTME]

intersubunit crosslinking of SOD-1 Cys111 (SOD-1 Cys111): intersubunit crosslinking
Compound: C=CS(=O)(=O)CCCCCCS(=O)(=O)C=C [HBVS]

Compound: CN(C)C(=N)N=C(N)N [Metformin]
AGE formation (AGE formation): prevent AGE formation

Compound: O=C(C[n+]1ccsc1)c1ccccc1.[Br-] [N-phenacylthiazolium bromide]
AGEs (diabetic rats; diabetic rat models): decrease AGEs | nephropathy as measured by proteinuria (diabetic rats; diabetic rat models): has not decreased nephropathy

Compound: Cc1ncc(CO)c(CN)c1O [Pyridoxamine]
cholesterol levels (diabetic rats; compared with aminoguanidine): lowered cholesterol levels more than aminoguanidine | diabetic nephropathy (diabetic rats; compared with aminoguanidine): inhibited diabetic nephropathy equally to aminoguanidine | AGE formation (diabetic rats; nondiabetic and diabetic rats): retarded AGE formation | weight (diabetic rats; nondiabetic and diabetic rats): mild weight loss

Compound: CCCCC1=NC2(CCCC2)C(=O)N1Cc1ccc(-c2ccccc2-c2nnn[nH]2)cc1 [irbesartan]
AGE formation (AGE formation): effective in vitro at decreasing AGE formation | vascular inflammation [4]: decreased vascular inflammation

Compound: CCCCc1nc(Cl)c(CO)n1Cc1ccc(-c2ccccc2-c2nn[nH]n2)cc1 [losartan]
AGE formation (AGE formation): effective in vitro at decreasing AGE formation

Compound: CCC[C@H](N[C@@H](C)C(=O)N1[C@H](C(=O)O)C[C@@H]2CCCC[C@@H]21)C(=O)OCC [perindopril]
atherosclerosis (mice): inhibited atherosclerosis | RAGE levels [4]: decreased RAGE levels

Compound: CCCc1nc2c(C)cc(-c3nc4ccccc4n3C)cc2n1Cc1ccc(-c2ccccc2C(=O)O)cc1 [telmisartan]
AGE formation (AGE formation): effective in vitro at decreasing AGE formation

Compound: O=C(O)CN1C[C@@H](c2cccs2)SC[C@H](N[C@@H](CCc2ccccc2)C(=O)O)C1=O [temocaprilat]
AGE formation (AGE formation): effective in vitro at decreasing AGE formation

Compound: CCCCC(=O)N(Cc1ccc(-c2ccccc2-c2nnn[nH]2)cc1)[C@H](C(=O)O)C(C)C [valsartan]
AGE formation (AGE formation): effective in vitro at decreasing AGE formation

Compound: SOD-1^G93A: disease-causing mutant copper/zinc superoxide dismutase with the G93A mutation
rate of death of motor neurons (cultured motor neurons [5]): 6.8 %/day | proteasome activity (proteasome): near complete inhibition

Compound: SOD-1^W32F/G93A: SOD-1 with the double mutation W32F and G93A
rate of death of motor neurons (cultured motor neurons [5]): 3.6 %/day | percentage of motor neurons with SOD-1 inclusions (cultured motor neurons [6]; days 5 and 7, versus SOD-1G93A): No significant difference | percentage of motor neurons with SOD-1 inclusions (cultured motor neurons [6]; post-microinjection day 3, versus SOD-1G93A, p<0.005): significantly lower proportion

Compound: SOD-1^W32F: SOD-1wt with Trp-32 replaced with Phe
rate of death of motor neurons (cultured motor neurons [5]): 4.3 %/day

Compound: SOD-1^wt: wild-type human copper/zinc superoxide dismutase
rate of death of motor neurons (cultured motor neurons [5]): 3.0 %/day
